# Experimental data: US20200362024A1, “BIOLOGICAL MATERIALS AND USES THEREOF” (IMPERIAL INNOVATIONS LIMITED, priority 2009, published 2020)
# B1: IL-1: murine IL-1 used to stimulate MEFs (protein, UniProt P10749 118-269, looked up)
# Interleukin-1 beta: VPIRQLHYRLRDEQQKSLVLSDPYELKALHLNGQNINQQVIFSMSFVQGEPSNDKIPVALGLKGKNLYLSCVMKDGTPTLQLESVDPKQYPKKKMEKRFVFNKIEVKSKVEFESAEFPNWYISTSQAEHKPVFLGNNSGQDIIDFTMESVSS
# B2: tenascin-C siRNA: tenascin-C targeted siRNAs; combination of oligos 1+2 used for cytokine synthesis (nucleic acid)
# sense 1: CGCGAGAACUUCUACCAAATT
# antisense 1: UUUGGUAGAAGUUCUCGCGTC
# sense 2: GGAAUAUGAAUAAAGAAGATT
# antisense 2: UCUUCUUUAUUCAUAUUCCGG
# modifications: chemistry not given here
# notes: tenascin-C targeted siRNAs; combination of oligos 1+2 used for cytokine synthesis
# Experiments:
# [1] = test system: primary human macrophages; experiment: Cytokine synthesis by primary human macrophages stimulated with FBG peptides; assay type: cell-based; conditions: 1 or 20 μM peptide, 24 h (IL8, FIG. 17)
# Procedure: (§1) After incubation the tissue was pipetted through a nylon mesh into a sterile beaker. The cells were then washed three times in complete medium (RPMI 1640 supplemented with 10% FCS). RA synovial fibroblasts were isolated from the mixed population of RA membrane cells by selection in DMEM (Bio-Whittaker) supplemented with 10% FBS, […], 100 U/ml penicillin, and streptomycin. Human monocytes were isolated from peripheral blood (London Blood Bank) and macrophages were derived from monocytes after differentiation for 4 days with 100 ng/ml of M-CSF.
# (§2) Macrophages were cultured at 1×10^5 cells/well in RPMI 1640 containing 5% (v/v) FBS and 100 U/ml penicillin/streptomycin in 96-well tissue culture plates for 24 h before stimulation. Cells were incubated for 24 h at 37° C. with no addition, 1.0 μM FBG, 1 ng/ml LPS or 1 or 20 μM FBG peptide. Where stated, cells were pre-incubated with 20 μM FBG peptides for 15 min.
# (§3) Supernatants were examined for the presence of the cytokines TNF-α, IL-6, and IL-8 by enzyme-linked immunosorbent assay (ELISA) according to the manufacturer's instructions (R&D systems). Absorbance was read on a spectrophotometric ELISA plate reader (Labsystems Multiscan Biochromic, Vantaa, Finland) and analyzed using the Ascent software program (Thermo Labsystems, Altrincham, UK).
# [2] = test system: RA membrane cells; experiment: Blockade of spontaneous cytokine synthesis in RA synovial membrane cultures by FBG peptides; assay type: cell-based, human; conditions: for inhibition of cytokine synthesis: highest concentrations, dose dependent (25, 100 or 250 μM, TNF & IL8, FIG. 16); for TNF and IL8 synthesis (inhibition): spontaneous cytokine synthesis, 24 h with peptide
# Procedure: RA membrane cells (representing a mixed population of all synovial cell types) were isolated from synovial membranes obtained from patients undergoing joint replacement surgery (Brennan (1989)). Synovial membrane tissue was digested in RPMI 1640 (GIBCO) containing 5% fetal calf serum (FCS) (GIBCO), 5 mg/ml collagenase type IV (Sigma) and 0 15 mg/ml DNAse type I (Sigma) and incubated at 37° C. for 2 h.
# Immediately after isolation, RA membrane cells were cultured at 1×10^5 cells/well in RPMI 1640 containing 10% (v/v) FBS and 100 U/ml penicillin/streptomycin in 96-well tissue culture plates. Cells were incubated for 24 h at 37° C. with no addition, buffer control (PBS, 1% BSA, 0.01% NaN3), or with 25 μm, 100 μM or 250 μM of each FBG spanning peptide.
# as §3
# [3] = test system: human macrophages; experiment: FBG or LPS induced cytokine synthesis in human macrophages pre-incubated with FBG peptides; assay type: cell-based; conditions: pre-incubated with 20 μM peptide for 15 min; for FBG mediated cytokine synthesis (block): then 1.0 μM FBG 24 h
# Procedure: as §1, §2, §3
# [4] = test system: human macrophages and RA synovial fibroblasts; experiment: Ligand induced cytokine synthesis after pre-incubation with function blocking antibodies or inhibitors; assay type: cell-based; conditions: 10 μg/ml IL1 receptor antagonist pre-incubation
# Procedure: (§4) Cells were incubated for 24 hours at 37° C. with the indicated doses of tenascin-C and recombinant tenascin-C fragments (1.0 μM-1.0 nM). Cells were also stimulated where indicated with LPS (1 ng/ml for human macrophages, 10 ng/ml for human fibroblasts, RA membrane cells and HEKs, 100 ng/ml for MEFS and BMDMs and 10 ng/ml for HEKS), PAM3 (10 ng/ml for human macrophages, human fibroblasts, and HEKs, 100 ng/ml for MEFs and BMDMs), murine IL-1 (5 ng/ml for MEFS) and murine TNF-α (100 ng/ml for MEFS). Unless specifically stated otherwise rough LPS was used for in vitro studies.
# (§5) Where stated, cells were pre-incubated with 10 μg/ml anti-CD14 antibody, 10 μg/ml IL1 receptor antagonist, 10 μg/ml anti-TLR2 antibody, 25 μg/ml anti-TLR4 antibody, 10 or 25 μg/ml isotype control antibody, 25 μg/ml polymyxin B, or 1 μg/ml msbB LPS, for 30 minutes at 37° C. before stimulation. Where stated, recombinant tenascin-C and FBG, and LPS were boiled for 15 minutes before addition to cells
# as §3, with “were subsequently” for “were”, “instructions.” for “instructions (R&D systems).”
# [5] = test system: TLR2 or TLR4 deficient embryonic fibroblasts and bone marrow derived macrophages; experiment: Cytokine synthesis in embryonic fibroblasts and macrophages from TLR2 or TLR4 deficient mice; assay type: cell-based, mouse; conditions: 24 h
# Description: (§6) Homozygous TLR2 and TLR4 deficient mice on a C57BL/6 background (an inbred strain of mice with a black coat) were obtained from B&K Universal (Hull, UK) Hoshino (1999) and Takeuchi (1999). Homozygous MyD88 deficient mice on a C57BL/6 background were provided by the Sanger Institute (Cambridge, UK). Age matched congenic inbred wild type C57B/L6 mice were obtained from Charles River (Margate, UK). For isolation of mouse embryo fibroblasts one female aged 8-10 weeks was mated with two males aged 8-10 weeks. For isolation of bone marrow derived macrophages mice were female and between 10-12 weeks of age at the time of experimentation.
# MEFs express high levels of mRNA of all 9 murine TLRs and are specifically and highly responsive to TLR ligand activation. […] MEFs were isolated from d13 embryos harvested from age-matched, pregnant female wild type, TLR2, TLR4 and null mice (as described in Todaro (1963)). Fibroblasts were cultured at 2×10^4 cells/well in DMEM containing 10% (v/v) FBS and 100 U/ml penicillin/streptomycin in 96-well tissue culture plates for 24 hours before stimulation.
# BMDMs were derived by aspirating the femurs of age matched female wild type, TLR2 and TLR4 null mice as described in Butler (1999)) and culturing the cells for 7 days in DMEM, 20% (v/v) FBS, 10 ml/L (v/v) antibiotic-antimycotic solution PSA, 50 μM Mercaptoethanol and 10 ng/ml M-CSF. Macrophages were then cultured at 1×10^5 cells/well in DMEM, 20% (v/v) FBS, 10 ml/L (v/v) antibiotic-antimycotic solution PSA, 50 μM β-Mercaptoethanol in 96-well tissue culture plates for 24 hours before stimulation.
# as §4
# as §3, with “were subsequently” for “were”, “instructions.” for “instructions (R&D systems).”
# [6] = test system: MyD88 deficient mouse embryonic fibroblasts; experiment: Cytokine synthesis in mouse embryonic fibroblasts from MyD88 deficient mice; assay type: cell-based; conditions: 24 h; FBG 1 μM, PAM3, LPS, TNFα 100 ng/ml, IL-1 5 ng/ml
# Description: as §6, with “Homozygous” for “Homozygous TLR2 and TLR4 deficient mice on a C57BL/6 background (an inbred strain of mice with a black coat) were obtained from B&K Universal (Hull, UK) Hoshino (1999) and Takeuchi (1999). Homozygous”
# MEFs express high levels of mRNA of all 9 murine TLRs and are specifically and highly responsive to TLR ligand activation. […] Fibroblasts were cultured at 2×10^4 cells/well in DMEM containing 10% (v/v) FBS and 100 U/ml penicillin/streptomycin in 96-well tissue culture plates for 24 hours before stimulation.
# as §4
# as §3, with “were subsequently” for “were”, “instructions.” for “instructions (R&D systems).”
# [7] = test system: RA synovial fibroblasts; experiment: Cytokine synthesis in RA synovial fibroblasts stimulated with tenascin-C, FBG or LPS; assay type: cell-based, human; conditions: 24 h
# Description: RA membrane cells (representing a mixed population of all synovial cell types) were isolated from synovial membranes obtained from patients undergoing joint replacement surgery as previously described (Brennan (1989)). RA synovial fibroblasts were isolated from the mixed population of RA membrane cells as previously described (Brennan (1989)). The study was approved by the local Trust ethics committee (Riverside NHS Research Committee), and waste tissue (synovium after joint replacement surgery) was obtained only after receiving signed informed consent from the patient and anonymyzing the tissue to protect patient identity.
# (§7) Immediately after isolation, RA membrane cells and macrophages were cultured at 1×10^5 cells/well in RPMI 1640 containing 10% (v/v) FBS and 100 U/ml (Units/ml) penicillin/streptomycin in 96-well tissue culture plates for 24 hours before stimulation. Synovial fibroblasts (used only at either passage number 2 or 3) were cultured at 1×10^4 cells/well in DMEM containing 10% (v/v) FBS and 100 U/ml penicillin/streptomycin in 96-well tissue culture plates for 24 hours before stimulation.
# as §4, §5
# as §3, with “were subsequently” for “were”, “instructions.” for “instructions (R&D systems).”
# [8] = test system: primary human macrophages; experiment: Cytokine synthesis in primary human macrophages stimulated with tenascin-C or its domains; assay type: cell-based
# Procedure: Human monocytes were isolated from peripheral blood (London Blood Bank) and macrophages were derived from monocytes after differentiation for 4 days with 100 ng/ml of M-CSF as previously described (Foxwell (1998)).
# as §7, §4, §5
# as §3, with “were subsequently” for “were”, “instructions.” for “instructions (R&D systems).”
# [9] = test system: tenascin-C; experiment: siRNA mediated knockdown of tenascin-C expression in RA synovial fibroblasts; assay type: cell-based, human; conditions: 10 nM siRNA, compared to luciferase siRNA control
# Procedure: (§8) Synovial fibroblasts (used only at either passage number 2 or 3) were seeded at a concentration of 5×10^4 cells in a 3.5-cm dish. siRNA was transfected at a final concentration of 10 nM using Lipofectamine 2000 (Invitrogen) for 4 h in serum-free OptiMEM I. Two different siRNAs against human tenascin-C were used (s7069 and s229491) (Applied Biosystems).
# siRNA sequences of s7069 are: (sense 5′ […]tt 3′, antisense 5′ […]tc 3′) and of s229491 are (5′ […]tt 3′, antisense 5′ […]gg 3′). siRNA against luciferase (Dharmacon) was transfected as a non-targeting control.
# Four hours after transfection, medium was changed with pre-equilibrated Dulbecco's modified Eagle's medium containing 10% FBS (v/v) and cells were incubated for a further 48 h and 72 h. Cells were then stimulated with 10 ng/ml LPS for 24 h at 37° C. Tenascin-C mRNA and protein levels were quantitated by PCR and western blotting respectively. […]
# Gene expression was analysed by delta-delta ct methods based on quantitative real-time PCR with TaqMan primer set human tenascin-C(Hs01115663-ml) and human ribosomal protein endogenous control (RPLPO) (4310879E) (Applied Biosystems) in a Corbett Rotor-gene 6000 machine (Corbett Research Ltd). Tenascin-C protein was detected in cell supernatants and cell lysates by SDS PAGE and western blotting using antibody MAB1908 (Millipore).
# [10] = test system: RA synovial fibroblasts; experiment: Cytokine synthesis in RA synovial fibroblasts transfected with tenascin-C siRNA; assay type: cell-based, human; conditions: compared to control cells (IL6)
# Procedure: as §8
# Four hours after transfection, medium was changed with pre-equilibrated Dulbecco's modified Eagle's medium containing 10% FBS (v/v) and cells were incubated for a further 48 h and 72 h. Cells were then stimulated with 10 ng/ml LPS for 24 h at 37° C. Tenascin-C mRNA and protein levels were quantitated by PCR and western blotting respectively. Total RNA was extracted from cells using a QiaAmp RNA Blood mini kit (Qiagen, Germany). cDNA was synthesised from equivalent amounts of total RNA using SuperScript® III Reverse Transcriptase (invitrogen) and 18-mer oligo dTs (Eurofins MWG Operon).
# as §3
molecule,measurement,setting,value
ELRVDLRDHGETAFAVYDKFSVGDAKTRYK [Peptide 5],cytokine synthesis (induction),[1],induced cytokine synthesis in a dose dependent manner
same,effect on TNF synthesis,"[2]; RA membrane cells, 24 h",no effect
same,maximal inhibition of IL8 synthesis,"[2]; RA membrane cells, dose dependent",81%
same,FBG mediated cytokine synthesis (block),[3],specifically blocked
IL-1 receptor antagonist: IL-1 receptor antagonist from R&D Systems,inhibition of FBG induction of cytokines,[4],did not inhibit
KTRYKLKVEGYSGTAGDSMAYHNGRSFST [Peptide 6],cytokine synthesis (induction),[1],induced cytokine synthesis in a dose dependent manner
Pam3Cys-Ser-Lys4 [reference compound],cytokine synthesis in cells from TLR2 deficient mice,[5],unresponsive
same,cytokine synthesis in cells from TLR4 deficient mice,[5],did respond
same,cytokine synthesis in embryonic fibroblasts with targeted deletion of MyD88,[6],abolished
TIGLLYPFPKDCSQAMLNGDTTSGLYTIYL [Peptide 1],cytokine synthesis (induction),[1],induced cytokine synthesis in a dose dependent manner
TNF-α [reference compound],cytokine synthesis in embryonic fibroblasts with targeted deletion of MyD88,[6],unaffected
WIVFLRRKNGRENFYQNWKAYAAGFGDRRE [Peptide 3],inhibition of cytokine synthesis,[2],95%
same,TNF and IL8 synthesis (inhibition),[2],inhibited
WYRNCHRVNLMGRYGDNNHSQGVNWFHWKG [Peptide 8],inhibition of cytokine synthesis,[2],56%
same,TNF and IL8 synthesis (inhibition),[2],inhibited
same,cytokine synthesis in response to LPS (block),[3]; then 1 ng/ml LPS 24 h,blocked
same,FBG mediated cytokine synthesis (block),[3],blocked
tenascin-C: recombinant full-length human tenascin-C purified from HEK293 conditioned medium,TNF-α synthesis in fibroblasts,[7],Neither LPS nor tenascin-C induced
same,IL-6 synthesis in RA synovial fibroblasts,[7]; LPS 10 ng/ml,only induced IL-6 synthesis
same,IL-8 synthesis in RA synovial fibroblasts,[7]; LPS 10 ng/ml,only induced IL-6 synthesis
same,"production of TNF-α, IL-6 and IL-8 in human macrophages","[8]; 1.0 μM-1.0 nM, 24 h",dose dependently stimulated
same,cytokine stimulation: heat sensitivity and effect of polymyxin B,"[8]; boiled 15 minutes, 25 μg/ml polymyxin B pre-incubation, human macrophages and synovial fibroblasts","heat sensitive and unaffected by the LPS inhibitor, polymyxin B"
B1,cytokine synthesis in cells from TLR2 deficient mice,[5],responsive
same,cytokine synthesis in cells from TLR4 deficient mice,[5],did respond
same,cytokine synthesis in embryonic fibroblasts with targeted deletion of MyD88,[6],abolished
B2,"knockdown of tenascin-C expression, maximal efficiency",[9],94-96%
same,inhibition of LPS induced cytokine production,[10]; 10 ng/ml LPS 24 h,44%
same,inhibition of basal level of cytokine synthesis,[10],38%
